Measured values: US8486965B2, “Pyrrolo[2,3-b]pyridine derivative and use thereof for treatment of cancer” (Takeda Pharmaceutical Company Limited, priority 2009, dated 2013)

System: Hedgehog signal transduction system (Smo)
Assay: Gli reporter luciferase assay in NIH-3T3/Gli reporter cells stimulated with mouse Shh-N end fragment
Format: cell-based
Settings: NIH3T3; 1 μM compound; NIH-3T3/Gli reporter cells with mouse Shh-N end fragment culture supernatant, 48 hr; luciferase activity, control without compound as 100; read-out: inhibition rate (%) at 1 μM
Description: Inhibition of the Hedgehog signal transduction system can be measured, for example, by quantifying a decrease in the expression level of a reporter gene connected to the downstream of the Gli binding site based on the fluorescence intensity according to the following Experimental Example 1. Alternatively, it can be measured by quantifying the expression of Gli-1 mRNA in a cell extract by quantitative PCR method and the like. A compound that inhibits Hedgehog signal targets Smo, which can be confirmed, for example, by binding fluorescence-labeled Cyclopamine and a test compound to cells expressing Smo, measuring the fluorescence level of the cell, and comparing the value with that without addition of a test compound to find a decrease.
Gli reporter plasmid was constructed by inserting 8×Gli-binding site and chicken δ-crystalline promoter into the upstream of luc+ of pGL3 (Promega).
prepared in reference to the base sequence described in GenBank accession No.; X02187, and chicken genome DNA (Clontech) as a template. PCR reaction was performed using Pfu Turbo (Stratagene) and following the attached protocol. The obtained 108 bp fragment was digested with restriction enzymes BglII and HindIII, and inserted into BglII-HindIII site of pGL3 to give plasmid pGL3/δ-cry promoter.
As 8× Gli-binding site, a sequence containing eight 9-bp Gli bound consensus sequences (GACCACCCA) described in Yoon et al., J. Biol. Chem., vol. 273, pages 3496-3501 (1998) was prepared from synthetic DNA. That is, two synthetic DNAs,
were heat treated at 95° C. for 2 minutes, and incubated at 37° C. for 1 hr for annealing to give a double stranded DNA of the above-mentioned two synthetic DNAs. The obtained double stranded DNA was digested with restriction enzymes BglII and KpnI, and the obtained DNA fragment was inserted into BglII-KpnI site of pGL3/δ-cry promoter to construct plasmid pGL3/δ-cry promoter, 8× Gli binding site, i.e., Gli reporter plasmid. 2. Construction of Plasmid for Expression of Mouse Shh-N End Fragment
As a material for construction of plasmid for Shh-N end fragment expression, mouse Shh cDNA was cloned at first.
The mouse Shh cDNA was cloned by Nested PCR method using mouse 11-day fetus cDNA (Clontech) as a template. The primer sequence was prepared in reference to the base sequence described in GenBank accession No.; NM_009170.
Using the mouse Shh cDNA sequence obtained as mentioned above as a template, a partial cDNA sequence wherein stop codon (TGA) was added to 3′-terminal of cDNA sequence encoding 1st to 198th amino acid sequence of mouse Shh was obtained by PCR method. As the primer set,
In the manner mentioned above, a plasmid for mouse Shh-N end fragment expression, pcDNA3.1/mShh-N, was constructed.
HEK293 cells were grown in D-MEM medium (Invitrogen) containing 10% fetal bovine serum in a 10 cm dish and pcDNA3.1/mShh-N was introduced into the cells using FuGENE6 (Roche Applied Science). Thereafter, the HEK293 cells were cultured in a carbon dioxide gas incubator at 37° C. for 24 hours, and the medium was exchanged with D-MEM medium (Invitrogen) containing 2% fetal bovine serum. After culturing for 48 hr, culture supernatant containing recombinant type mouse Shh-N end fragment was obtained by filtration using a filter ([…]).
Using D-MEM (Invitrogen) containing 10% fetal bovine serum, expression plasmid pcDNA3:1 and Gli reporter plasmid (pGL3/δ-cry promoter, 8× Gli binding site) produced by the method of Experimental Example 1 were introduced into NIH-3T3 cells grown in a 10 cm dish by the use of FuGENE6 (Roche Applied Science).
After culture for 24 hr, the cells were recovered, suspended in D-MEM medium containing 10% fetal bovine serum and supplemented with Geneticin (Life Technologies Oriental, Inc.) to a final concentration of 500 μg/ml, diluted to 10^4 cells/ml, plated on a 96 well plate, and cultured in a carbon dioxide gas incubator at 37° C. to give Geneticin resistant transformed cell line. […]

Structure (SMILES) | inhibition at 1 µM [%]
CCc1cc2c(cc1NC(=O)c1ccc(Cl)cc1)c(OC(C)C)c(C(=O)NC1CCN(C(=O)CO)CC1)n2C [Example 169, 5-{[(4-chlorophenyl)carbonyl]amino}-6-ethyl-N-[1-(hydroxyacetyl)piperidin-4-yl]-1-methyl-3-(1-methylethoxy)-1H-indole-2-carboxamide] | 99
CCc1cc2sc(C(=O)NC3CCN(C(=O)CO)CC3)c(OCC(F)(F)F)c2cc1NC(=O)c1ccccc1 [Example 149, 6-ethyl-N-[1-(hydroxyacetyl)piperidin-4-yl]-5-[(phenylcarbonyl)amino]-3-(2,2,2-trifluoroethoxy)-1-benzothiophene-2-carboxamide] | 85
CCc1nc2c(nc1NC(=O)c1ccc(F)cc1)c(OC(C)C)c(C(=O)NC1CCN(C(=O)CO)CC1)n2C [Example 162, 3-ethyl-2-{[(4-fluorophenyl)carbonyl]amino}-N-[1-(hydroxyacetyl)piperidin-4-yl]-5-methyl-7-(1-methylethoxy)-5H-pyrrolo[2,3-b]pyrazine-6-carboxamide] | 100
CCc1cc2c(cc1NC(=O)c1ccsc1)c(OC(C)C)c(C(=O)NC1CCN(C(=O)CO)CC1)n2C [Example 148, 6-ethyl-N-[1-(hydroxyacetyl)piperidin-4-yl]-1-methyl-3-(1-methylethoxy)-5-[(thiophen-3-ylcarbonyl)amino]-1H-indole-2-carboxamide] | 98
CCc1nc2c(cc1NC(=O)c1cccs1)c(OC(C)C)c(C(=O)NC1CCN(C(=O)CO)CC1)n2C [Example 51, 6-ethyl-N-[1-(hydroxyacetyl)piperidin-4-yl]-1-methyl-3-(1-methylethoxy)-5-[(thiophen-2-ylcarbonyl)amino]-1H-pyrrolo[2,3-b]pyridine-2-carboxamide] | 94
CCc1nc2c(cc1NC(=O)c1nccs1)c(OCC(F)(F)F)c(C(=O)NC1CCN(C(=O)CO)CC1)n2C [Example 69, 6-ethyl-N-[1-(hydroxyacetyl)piperidin-4-yl]-1-methyl-5-[(1,3-thiazol-2-ylcarbonyl)amino]-3-(2,2,2-trifluoroethoxy)-1H-pyrrolo[2,3-b]pyridine-2-carboxamide] | 99
CCc1cc2c(cc1NC(=O)c1ccccc1)c(OC(C)C)c(C(=O)NC1CCN(C(=O)CO)CC1)n2C [Example 71, 6-ethyl-N-[1-(hydroxyacetyl)piperidin-4-yl]-1-methyl-3-(1-methylethoxy)-5-[(phenylcarbonyl)amino]-1H-indole-2-carboxamide] | 97
CCc1cc2sc(C(=O)NC3CCN(C(=O)CO)CC3)c(OC(C)C)c2cc1NC(=O)c1ccc(F)cc1 [Example 154, 6-ethyl-5-{[(4-fluorophenyl)carbonyl]amino}-N-[1-(hydroxyacetyl)piperidin-4-yl]-3-(1-methylethoxy)-1-benzothiophene-2-carboxamide] | 97
CCc1nc2c(cc1NC(=O)c1ccc(Cl)s1)c(OC(C)C)c(C(=O)NC1CCN(C(=O)CO)CC1)n2C [Example 59, 5-{[(5-chlorothiophen-2-yl)carbonyl]amino}-6-ethyl-N-[1-(hydroxyacetyl)piperidin-4-yl]-1-methyl-3-(1-methylethoxy)-1H-pyrrolo[2,3-b]pyridine-2-carboxamide] | 95
CCc1cc2c(nc1-c1ccccc1)c(OC(C)C)c(C(=O)NC1CCN(C(=O)CO)CC1)n2C [Example 131, 6-ethyl-N-[1-(hydroxyacetyl)piperidin-4-yl]-1-methyl-3-(1-methylethoxy)-5-phenyl-1H-pyrrolo[3,2-b]pyridine-2-carboxamide] | 82
CCc1nc2c(cc1NC(=O)c1ccco1)c(OCC(F)(F)F)c(C(=O)NC1CCN(C(=O)CO)CC1)n2C [Example 52, 6-ethyl-5-[(furan-2-ylcarbonyl)amino]-N-[1-(hydroxyacetyl)piperidin-4-yl]-1-methyl-3-(2,2,2-trifluoroethoxy)-1H-pyrrolo[2,3-b]pyridine-2-carboxamide] | 94
CCc1cc2c(cc1NC(=O)c1ccc(F)cc1)c(OC(C)C)c(C(=O)NC1CCN(C(=O)CO)CC1)n2C [Example 168, 6-ethyl-5-{[(4-fluorophenyl)carbonyl]amino}-N-[1-(hydroxyacetyl)piperidin-4-yl]-1-methyl-3-(1-methylethoxy)-1H-indole-2-carboxamide] | 97
CCc1nc2c(cc1NC(=O)c1ccc(Cl)cc1)c(OCC(F)(F)F)c(C(=O)NC1CCN(C(=O)CO)CC1)n2C [Example 32, 5-{[(4-chlorophenyl)carbonyl]amino}-6-ethyl-N-[1-(hydroxyacetyl)piperidin-4-yl]-1-methyl-3-(2,2,2-trifluoroethoxy)-1H-pyrrolo[2,3-b]pyridine-2-carboxamide] | 98
CCc1nc2c(cc1NC(=O)c1cccs1)c(OCC(F)(F)F)c(C(=O)NC1CCN(C(=O)CO)CC1)n2C [Example 29, 6-ethyl-N-[1-(hydroxyacetyl)piperidin-4-yl]-1-methyl-5-[(thiophen-2-ylcarbonyl)amino]-3-(2,2,2-trifluoroethoxy)-1H-pyrrolo[2,3-b]pyridine-2-carboxamide] | 95
CCc1nc2c(cc1NC(=O)c1ccccc1)c(OCC(F)(F)F)c(C(=O)N[C@H]1CC[C@H](O)CC1)n2C [Example 37, 6-ethyl-N-(trans-4-hydroxycyclohexyl)-1-methyl-5-[(phenylcarbonyl)amino]-3-(2,2,2-trifluoroethoxy)-1H-pyrrolo[2,3-b]pyridine-2-carboxamide] | 87
CCc1nc2c(cc1NC(=O)c1cc(C)nn1C)c(OCC(F)(F)F)c(C(=O)NC1CCN(C(=O)CO)CC1)n2C [Example 57, 5-{[(1,3-dimethyl-1H-pyrazol-5-yl)carbonyl]amino}-6-ethyl-N-[1-(hydroxyacetyl)piperidin-4-yl]-1-methyl-3-(2,2,2-trifluoroethoxy)-1H-pyrrolo[2,3-b]pyridine-2-carboxamide] | 99
CCc1nc2c(cc1Nc1cccc(OC)c1)c(OCC(F)(F)F)c(C(=O)NC1CCN(C(=O)CO)CC1)n2C [Example 5, 6-ethyl-N-[1-(hydroxyacetyl)piperidin-4-yl]-5-[(3-methoxyphenyl)amino]-1-methyl-3-(2,2,2-trifluoroethoxy)-1H-pyrrolo[2,3-b]pyridine-2-carboxamide] | 97
CCOc1c(C(=O)NC2CCN(C(=O)CO)CC2)n(C)c2nc(CC)c(NC(=O)c3ccc(F)cc3)cc12 [Example 39, 3-ethoxy-6-ethyl-5-{[(4-fluorophenyl)carbonyl]amino}-N-[1-(hydroxyacetyl)piperidin-4-yl]-1-methyl-1H-pyrrolo[2,3-b]pyridine-2-carboxamide] | 96
Cc1nc2c(cc1NC(=O)c1ccccc1)c(OC(C)C)c(C(=O)NC1CCN(C(=O)CO)CC1)n2C [Example 155, N-[1-(hydroxyacetyl)piperidin-4-yl]-1,6-dimethyl-3-(1-methylethoxy)-5-[(phenylcarbonyl)amino]-1H-pyrrolo[2,3-b]pyridine-2-carboxamide] | 99
CCc1cc2c(nc1NC(=O)c1ccccc1)c(OC(C)C)c(C(=O)NC1CCN(C(=O)CO)CC1)n2C [Example 130, 6-ethyl-N-[1-(hydroxyacetyl)piperidin-4-yl]-1-methyl-3-(1-methylethoxy)-5-[(phenylcarbonyl)amino]-1H-pyrrolo[3,2-b]pyridine-2-carboxamide] | 84
